The results in this text go back to patent US20090062253A1, “HETEROCYCLODIAZEPINE CANNABINOID RECEPTOR MODULATORS FOR TREATMENT OF DISEASE” (KALYPSYS, INC., priority 2007, published 2009).

The target of assay [1] is T1, human cannabinoid receptor type 1 (Homo sapiens, UniProt P21554).
T1 construct: purchased Perkin Elmer RBHCB1M; host or cells: HEK 293 EBNA cells
The assay is described as follows: Human CB1 Radioligand Binding Assay (basis of selectivity CB2 vs. CB1). Here is the method:
(§1) This receptor binding filtration assay measures the receptor-ligand interactions of compounds by measuring ability to compete with a radiolabeled control ligand. Reactions were performed in 96 deep-well plate (Costar 3961) with a final volume of 600 ul. Compounds were added to each well either in single point (10 uM final) or dose-response. Compounds were delivered in DMSO or further diluted in incubation buffer to a final assay DMSO concentration of 1%. Incubation buffer (50 mM Tris-HCl pH 7.4, 2.5 mM EGTA, 5 mM MgCl2, 5.0 mg/ml fatty acid free BSA) was added to each well. Following buffer addition, [^3H] CP-55,940 was added. Tritiated CP-55,940 (Perkin Elmer) was used at the Kd determined from prior saturation binding experiments conducted on each lot of membranes. Membrane preparations from stably transfected CHO CB2 cells were added and the reaction was incubated for 90 minutes at 30° C. Unifilter GF/C filtration plates (Perkin Elmer) were pre-wet with 0.05% polyethylenimine. Samples were transferred to Unifilter plates and separation of unbound radioligand was achieved using a vacuum manifold (Millipore). Following thorough washing with 5 ml/well ice-cold wash buffer (50 mM Tris-HCl pH 7.4, 2.5 mM EGTA, 5 mM MgCl2, 0.5 mg/ml fatty acid free BSA), filterplates were dried completely. Betaplate Scint Scintillation cocktail (25 ul, Perkin Elmer) was applied and plates were read using Microbeta Trilux (Wallac). Data analysis was performed in Spotfire. Activity of the positive control (100 nM CP-55,940) was set as 100% efficacy.
The CB1 binding assay was performed as described above except that HEK 293 EBNA cells expressing human cannabinoid receptor type 1 (Perkin Elmer cat #RBHCB1M) were used according the manufacturer's instructions. The incubation buffer was composed of 50 mM Tris-HCl pH 7.4, 2.5 mM EDTA, 5 mM MgCl2, 5.0 mg/ml fatty acid free BSA and the wash buffer was composed of 50 mM Tris-HCl pH 7.4, 2.5 mM EDTA, 5 mM MgCl2, 0.5 mg/ml fatty acid free BSA. Activity of the positive control (100 nM CP-55,940) was set as 100% efficacy.

In assay [2] the target is T2, Human CB2 (Homo sapiens, UniProt P34972).
T2 construct: expressed in transfected cells; membrane preparation
T2 sequence (P34972 whole entry): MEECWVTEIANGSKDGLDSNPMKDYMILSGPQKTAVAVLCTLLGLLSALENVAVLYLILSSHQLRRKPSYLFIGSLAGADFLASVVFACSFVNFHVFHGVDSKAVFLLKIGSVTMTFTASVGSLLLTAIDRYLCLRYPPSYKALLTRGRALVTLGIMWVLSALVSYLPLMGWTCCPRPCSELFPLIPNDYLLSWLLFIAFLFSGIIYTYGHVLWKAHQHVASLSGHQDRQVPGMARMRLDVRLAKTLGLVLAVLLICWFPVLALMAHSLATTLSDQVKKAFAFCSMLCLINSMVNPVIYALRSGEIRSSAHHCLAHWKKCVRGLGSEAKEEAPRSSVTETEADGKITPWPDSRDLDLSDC
Put plainly: Human CB2 Radioligand Binding Assay. As to conditions: membranes from stably transfected CHO CB2 cells; competition with [3H] CP-55,940; read-out: CB2 Ligand Binding Asssay. Here is the method:
as §1
Stable recombinant Human CB2-CHO cell membranes were prepared as follows: Chinese Hamster Ovarian (CHO) cells stably expressing human cannabinoid receptor type 2 were grown to ˜90% confluence in 15×100 mm culture dishes under puromycin selection (5 ug/ml) Cells were harvested from culture flasks using a cell scraper, were washed once with cold phosphate-buffered saline (calcium and magnesium free) and pelleted by centrifugation at 400 g for 5 min at 4° C. Cell pellet was washed once with cold phosphate-buffered saline and centrifuged again at 400×g for 5 min at 4° C. The pellet was suspended in ice-cold lysis buffer (10 mM Tris-HCl, 0.1 mM EDTA, containing […], pH 7.5) and homogenized in a chilled 7 ml glass dounce homogenizer using 50 strokes. The homogenate was centrifuged at 400 g for 15 min at 4° C. The cloudy supernatant was collected and centrifuged at 41000 g for 30 min at 4° C. The resulting pellet was washed with ice-cold sucrose-free lysis buffer and centrifuged again at 41000 g for 30 min at 4° C. The membrane pellet was suspended in sucrose-free storage buffer (10 mm Tris-HCl, 0.1 mM EDTA, pH 7.5) to a concentration of 2-3 mg protein/ml. Aliquots were flash frozen in liquid nitrogen and stored at −80° C. Concentration was determined using Dc protein assay kit (Bio-Rad).

T1 sequence (P21554 whole entry): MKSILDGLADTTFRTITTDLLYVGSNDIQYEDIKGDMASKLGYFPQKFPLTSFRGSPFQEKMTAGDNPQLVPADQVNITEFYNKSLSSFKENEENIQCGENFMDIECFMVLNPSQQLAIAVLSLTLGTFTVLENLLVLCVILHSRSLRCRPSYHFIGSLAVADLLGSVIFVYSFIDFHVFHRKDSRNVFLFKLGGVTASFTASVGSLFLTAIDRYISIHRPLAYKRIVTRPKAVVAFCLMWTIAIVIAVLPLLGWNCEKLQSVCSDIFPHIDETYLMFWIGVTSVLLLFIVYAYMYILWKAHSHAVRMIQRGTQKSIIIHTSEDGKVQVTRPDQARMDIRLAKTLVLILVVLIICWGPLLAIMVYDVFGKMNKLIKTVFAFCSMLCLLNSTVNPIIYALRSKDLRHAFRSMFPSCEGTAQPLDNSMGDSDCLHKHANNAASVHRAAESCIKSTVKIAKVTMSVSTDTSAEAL

Regarding `O=C(Nc1ccc(Cl)cc1Cl)N1CCCn2cccc2C1c1ccccc1` (stereo not shown) [Example 13, N-(2,4-Dichlorophenyl)-1-phenyl-4,5-dihydro-1H-pyrrolo[1,2-a][1,4]diazepine-2(3H)-carboxamide], the “Selectivity, CB2 vs. CB1” value in assay [1] is on record as “− (− indicates < 10-fold)”. For the same compound, in assay [2], the IC50 (radioligand displacement) was above 1000 nM.

With `CC(C)(C)c1cccc(C2c3cccn3CCCN2C(=O)Nc2ccc(F)cc2F)c1` (stereo not shown) [Example 18, 1-(3-tert-Butylphenyl)-N-(2,4-difluorophenyl)-4,5-dihydro-1H-pyrrolo[1,2-a][1,4]diazepine-2(3H)-carboxamide], in assay [1], the “Selectivity, CB2 vs. CB1” value is given as “+ (+ indicates > 10-fold)”. The IC50 (radioligand displacement) in assay [2] was below 1000 nM.

Regarding `CC(C)(C)c1cccc(C2c3cccn3CCCN2C(=O)Nc2ccc(Cl)cc2Cl)c1` (stereo not shown) [Example 19, 1-(3-tert-Butylphenyl)-N-(2,4-dichlorophenyl)-4,5-dihydro-1H-pyrrolo[1,2-a][1,4]diazepine-2(3H)-carboxamide], in assay [1], the “Selectivity, CB2 vs. CB1” value is given as “− (− indicates < 10-fold)”. In addition, the IC50 (radioligand displacement) in assay [2] is above 1000 nM.

On to `O=C(Nc1ccc(Cl)cc1Cl)N1CCCn2cccc2C1Cc1ccccc1` (stereo not shown) [Example 21, 1-Benzyl-N-(2,4-dichlorophenyl)-4,5-dihydro-1H-pyrrolo[1,2-a][1,4]diazepine-2(3H)-carboxamide], for which the “Selectivity, CB2 vs. CB1” value in assay [1] is listed as “− (− indicates < 10-fold)”. Also, the IC50 (radioligand displacement) in assay [2] was above 1000 nM.

Turning to `CC(C)(C)c1ccc(CC2c3cccn3CCCN2C(=O)Nc2ccc(F)cc2F)cc1` (stereo not shown) [Example 23, 1-(4-tert-Butylbenzyl)-N-(2,4-difluorophenyl)-4,5-dihydro-1H-pyrrolo[1,2-a][1,4]diazepine-2(3H)-carboxamide], the “Selectivity, CB2 vs. CB1” value in assay [1] is listed as “+ (+ indicates > 10-fold)”. The IC50 (radioligand displacement) in assay [2] was below 1000 nM.

For `CC(C)(C)c1ccc(CC2c3cccn3CCCN2C(=O)Nc2ccc(Cl)cc2Cl)cc1` (stereo not shown) [Example 24, 1-(4-tert-Butylbenzyl)-N-(2,4-dichlorophenyl)-4,5-dihydro-1H-pyrrolo[1,2-a][1,4]diazepine-2(3H)-carboxamide], in assay [1], the “Selectivity, CB2 vs. CB1” value is recorded as “− (− indicates < 10-fold)”. Besides, the IC50 (radioligand displacement) in assay [2] was below 1000 nM.

Regarding `CC(C)(C)c1ccc(C2c3ccnn3CCCN2C(=O)Nc2ccc(Cl)cc2Cl)cc1` (stereo not shown) [Example 25, 4-(4-tert-Butylphenyl)-N-(2,4-dichlorophenyl)-7,8-dihydro-4H-pyrazolo [1,5-a][1,4]diazepine-5(6H)-carboxamide], in assay [1], the “Selectivity, CB2 vs. CB1” value is “+ (+ indicates > 10-fold)”. Further, the IC50 (radioligand displacement) in assay [2] was below 1000 nM.

Consider `CC(C)(C)c1ccc(C2c3nccn3CCCN2C(=O)Nc2ccc(F)cc2F)cc1` (stereo not shown) [Example 27, 9-(4-tert-Butylphenyl)-N-(2,4-difluorophenyl)-6,7-dihydro-5H-imidazo [1,2-a][1,4]diazepine-8(9H)-carboxamide], for which the “Selectivity, CB2 vs. CB1” value in assay [1] is “+ (+ indicates > 10-fold)”. The IC50 (radioligand displacement) in assay [2] was below 1000 nM.

In the case of `CC(C)(C)c1ccc(C2c3nccn3CCCN2C(=O)Nc2ccc(F)c(F)c2)cc1` (stereo not shown) [Example 28, 9-(4-tert-Butylphenyl)-N-(3,4-difluorophenyl)-6,7-dihydro-5H-imidazo[1,2-a][1,4]diazepine-8(9H)-carboxamide], the “Selectivity, CB2 vs. CB1” value in assay [1] is “+ (+ indicates > 10-fold)”. The IC50 (radioligand displacement) in assay [2] was below 1000 nM.

`CC(C)(C)c1ccc(C2c3nccn3CCCN2C(=O)Nc2ccc(Cl)cc2Cl)cc1` (stereo not shown) [Example 29, 9-(4-tert-Butylphenyl)-N-(2,4-dichlorophenyl)-6,7-dihydro-5H-imidazo[1,2-a][1,4]diazepine-8(9H)-carboxamide]: the “Selectivity, CB2 vs. CB1” value in assay [1] is recorded as “− (− indicates < 10-fold)”. Moreover, the IC50 (radioligand displacement) in assay [2] is above 1000 nM.

On to `CC(C)(C)c1ccc(C2c3cncn3CCCN2C(=O)Nc2ccc(Cl)cc2Cl)cc1` (stereo not shown) [Example 31, 9-(4-tert-Butylphenyl)-N-(2,4-dichlorophenyl)-6,7-dihydro-5H-imidazo[1,5-a][1,4]diazepine-8(9H)-carboxamide], for which the “Selectivity, CB2 vs. CB1” value in assay [1] is “+ (+ indicates > 10-fold)”. Besides, the IC50 (radioligand displacement) in assay [2] is below 1000 nM.

For `CC(C)(C)C1CCC(C2NCCCn3cccc32)CC1` (stereo not shown) [Example 32, 1-(4-tert-Butylcyclohexyl)-2,3,4,5-tetrahydro-1H-pyrrolo[1,2-a][1,4]diazepine], the “Selectivity, CB2 vs. CB1” value in assay [1] is on record as “+ (+ indicates > 10-fold)”. The IC50 (radioligand displacement) in assay [2] is above 1000 nM.

`CC(C)(C)C1CCC(C2c3cccn3CCCN2C(=O)Nc2ccc(F)c(F)c2)CC1` (stereo not shown) [Example 33, 1-(4-tert-Butylcyclohexyl)-N-(3,4-difluorophenyl)-4,5-dihydro-1H-pyrrolo[1,2-a][1,4]diazepine-2(3H)-carboxamide]: in assay [1], the “Selectivity, CB2 vs. CB1” value is listed as “− (− indicates < 10-fold)”. For the same compound, the IC50 (radioligand displacement) in assay [2] was below 1000 nM.

Regarding `CC(C)(C)C1CCC(C2c3cccn3CCCN2C(=O)Nc2ccc(F)cc2F)CC1` (stereo not shown) [Example 34, 1-(4-tert-Butylcyclohexyl)-N-(2,4-difluorophenyl)-4,5-dihydro-1H-pyrrolo[1,2-a][1,4]diazepine-2(3H)-carboxamide], in assay [1], the “Selectivity, CB2 vs. CB1” value was “+ (+ indicates > 10-fold)”. The IC50 (radioligand displacement) in assay [2] was below 1000 nM.

Take `CC(C)(C)C1CCC(C2c3cccn3CCCN2C(=O)Nc2ccc(Cl)cc2Cl)CC1` (stereo not shown) [Example 35, 1-(4-tert-Butylcyclohexyl)-N-(2,4-dichlorophenyl)-4,5-dihydro-1H-pyrrolo[1,2-a][1,4]diazepine-2(3H)-carboxamide]: the “Selectivity, CB2 vs. CB1” value in assay [1] is given as “− (− indicates < 10-fold)”. Besides, in assay [2], the IC50 (radioligand displacement) is below 1000 nM.

As to `CC(C)(C)c1ccc(C2c3ccnn3CCCN2C(=O)Nc2ccc(F)cc2F)cc1` (stereo not shown) [Example 36, 4-(4-tert-Butylphenyl)-N-(2,4-difluorophenyl)-7,8-dihydro-4H-pyrazolo[1,5-a][1,4]diazepine-5(6H)-carboxamide], in assay [1], the “Selectivity, CB2 vs. CB1” value is on record as “+ (+ indicates > 10-fold)”. Also, the IC50 (radioligand displacement) in assay [2] is below 1000 nM.

As to `CC(C)(C)c1ccc(C2c3cncn3CCCN2C(=O)Nc2ccc(F)cc2F)cc1` (stereo not shown) [Example 37, 9-(4-tert-Butylphenyl)-N-(2,4-difluorophenyl)-6,7-dihydro-5H-imidazo[1,5-a][1,4]diazepine-8(9H)-carboxamide], the “Selectivity, CB2 vs. CB1” value in assay [1] is “+ (+ indicates > 10-fold)”. Moreover, the IC50 (radioligand displacement) in assay [2] is below 1000 nM.

As to `O=C(Nc1ccc(F)cc1F)N1CCCn2cccc2C1Cc1ccccc1` (stereo not shown) [Example 41, 1-Benzyl-N-(2,4-difluorophenyl)-4,5-dihydro-1H-pyrrolo[1,2-a][1,4]diazepine-2(3H)-carboxamide], the “Selectivity, CB2 vs. CB1” value in assay [1] is “− (− indicates < 10-fold)”. Besides, the IC50 (radioligand displacement) in assay [2] is above 1000 nM.

Turning to `CC(C)(C)C1CCC(C2c3cccn3CCCN2C(=O)c2ccc(F)cc2F)CC1` (stereo not shown) [Example 45, (1-(4-tert-Butylcyclohexyl)-4,5-dihydro-1H-pyrrolo[1,2-a][1,4]diazepin-2(3H)-yl)(2,4-difluorophenyl)methanone], in assay [1], the “Selectivity, CB2 vs. CB1” value was “− (− indicates < 10-fold)”. Besides, the IC50 (radioligand displacement) in assay [2] was below 1000 nM.

As for `CC(=O)N1CCCn2cccc2C1c1ccc(C(C)(C)C)cc1` (stereo not shown) [Example 46, 1-(1-(4-tert-Butylphenyl)-4,5-dihydro-1H-pyrrolo[1,2-a][1,4]diazepin-2(3H)-yl)ethanone], in assay [1], the “Selectivity, CB2 vs. CB1” value is “− (− indicates < 10-fold)”. The IC50 (radioligand displacement) in assay [2] is above 1000 nM.
